# Assays:
# [1] = test system: Basal cells (bronchospheres); test: bronchosphere 3D Matrigel culture assay; type: cell-based, human; conditions: for SOX2 (basal cell marker) expression, immunoblot / acetylated α-tubulin (ciliated cell marker) expression, immunoblot: bronchosphere lysates
# Method: The effect of Abl kinase inhibition on the development of bronchospheres in a 3D Matrigel culture assay was also evaluated. Basal cells were cultured in Matrigel at passage 1 and treated with vehicle control, the Abl kinase inhibitor, GNF5, or the Abl kinase activator, DPH, for three days starting two days after plating the cells.
# [2] = test system: primary human bronchial epithelial cells (HBECs); test: basal cell differentiation of primary HBECs in air-liquid interface (ALI) cultures; type: cell-based; conditions: 7 days after plating; vs vehicle
# Text: Cell Culture. Primary human bronchial epithelial cells were isolated as previously described (Fulcher M L & Randell S H (2013) Methods Mol Biol 945:109-121) and passage 1 cells were derived from human lungs unsuitable for transplantation from non-smoker organ donors without pre-existing lung disease under protocol #03-1396 approved by the University of North Carolina at Chapel Hill Biomedical Institutional Review Board. Informed consent was obtained from authorized representatives of all organ donors. 30,000 cells were plated into each well of 6.5 mm polyester inserts containing 0.4 μm pores (Sigma-CLS3470) coated with Type IV human placenta collagen (Sigma-C7521). 100 μl of ALI medium was added to the insert and 600 μl of ALI medium was added to the well at the time of plating. At Day 3, ALI medium from the insert was removed while that in the well was changed daily for 28 days. At Day 28, the inserts containing the cells were removed from their wells, washed with PBS, and incubated at 37° C. for 30 minutes with 1×10^8 CFU S. aureus. Cells were then washed three times with PBS and returned to wells containing 600 μl of ALI medium to regrow. Cells were harvested at multiple time points up to five days after injury for protein or RNA extraction. All cultures were maintained at 37° C. in humidified air containing 5% CO2.
# First, the role of Abl kinases in basal cell differentiation in primary human bronchial epithelial cells (HBECs) in air-liquid interface (ALI) cultures was examined. Basal cells were isolated from human donor lungs and plated on polyester transwell inserts at passage 1. Once the cells were 100% confluent (3-4 days after plating), media from the top chamber of the transwell insert was removed to promote differentiation of the basal cells into a pseudostratified ciliated epithelium (FIG. 19A). […] Among these are acetylated α-tubulin and SNTN (ciliated cell marker) and SCGB3A2 (secretory cell marker) (FIG. 19C).
# To identify whether Abl kinase inhibition promotes early (Krt5+ cells→Krt8+ cells) or late (Krt8+→acetylated α-tubulin or Scgb1a1+ cells) differentiation, a time course experiment in primary HBEC ALI cultures was conducted. Primary HBECs were plated on polyester transwell inserts and treated with vehicle control or GNF5 24 hours after plating.
# [3] = test system: Primary HBECs; test: transepithelial electrical resistance assay in ALI cultures of primary HBECs; type: cell-based, human; conditions: vs vehicle control-treated cells
# Text: Thus, inhibition of the Abl kinases in 3D ALI cultures of primary HBECs promotes basal cell differentiation and enhances barrier function.
# [4] = test system: Primary HBECs; test: primary HBECs pre-treated with Abl kinase inhibitor before exposure to S. aureus, Western blot; type: cell-based, human; conditions: pre-treated 24 hours prior to exposure to S. aureus
# Text: Cell Culture. Primary human bronchial epithelial cells were isolated as previously described (Fulcher M L & Randell S H (2013) Methods Mol Biol 945:109-121) and passage 1 cells were derived from human lungs unsuitable for transplantation from non-smoker organ donors without pre-existing lung disease under protocol #03-1396 approved by the University of North Carolina at Chapel Hill Biomedical Institutional Review Board. Informed consent was obtained from authorized representatives of all organ donors. 30,000 cells were plated into each well of 6.5 mm polyester inserts containing 0.4 μm pores (Sigma-CLS3470) coated with Type IV human placenta collagen (Sigma-C7521). 100 μl of ALI medium was added to the insert and 600 μl of ALI medium was added to the well at the time of plating. At Day 3, ALI medium from the insert was removed while that in the well was changed daily for 28 days. At Day 28, the inserts containing the cells were removed from their wells, washed with PBS, and incubated at 37° C. for 30 minutes with 1×10^8 CFU S. aureus. Cells were then washed three times with PBS and returned to wells containing 600 μl of ALI medium to regrow. […]
# Immunoblotting. […] Protein was quantified, and equal amounts of protein was separated by SDS-polyacrylamide gel electrophoresis (BioRad-1610183) and transferred onto 0.2 μm pore nitrocellulose membranes. […]
# [5] = test system: mice exposed to S. aureus; test: mouse model of pneumonia induced by nasal insufflation of S. aureus; type: in vivo
# Method: Bacteria. S. aureus (Ssp. aureus, No. 25923; American Type Culture Collection) was grown as previously described (Suliman H B et al. (2017) Mitochondrial quality control in alveolar epithelial cells damaged by S. aureus pneumonia in mice. American journal of physiology. Lung cellular and molecular physiology 313(4):L699-L709). Dilutions of 5×10^8 CFU were used for mouse experiments, and dilutions of 1×10^8 CFU were used for cell culture experiments. S. pneumoniae (serotype 19, No. 49619; American Type Culture Collection) was grown as previously described (Gomez J C, et al. (2016) Journal of immunology 197(7):2864-2879). Dilutions of 6×10^5 CFU were used for mouse experiments.
# CC10 (Scgb1a1)-CreERT; Rosa26R-CAG-farnesylated GFP (Rosa26-fGFP) and SPC (Sftpc)-CreERT2; Rosa26-tdTomato mice were kindly provided by Dr. Mark Onaitis and generated by Dr. Brigid Hogan at Duke University and have been previously described (Rawlins E L, et al. (2009) Cell stem cell 4(6):525-534, Xu X, et al. (2012) Proc Natl Acad Sci USA 109(13):4910-4915). These mice were crossed with Abl1^flox/flox mice (Moresco E M, et al. (2005) J Neurosci 25(26):6105-6118) into a C57BL/6 genetic background. Sox2^tmHoch/J mice (referred to as SOX2-eGFP mice in the text) were purchased from the Jackson Laboratory. Gt(Rosa) 26Sor^tm9(EGFP/Rpl10z)Amc/J (referred to as L10-eGFP in the text) mice were purchased from the Jackson Laboratory and were crossed to CC10-CreERT; Abl1^flox/flox mice into a C57BL/6 genetic background for the TRAP experiments. To induce expression of Cre-recombinase for both TRAP experiments and lineage tracing experiments, 8to 20-week-old male and female mice were injected intraperitoneally four times every other day with 0.25 mg/g body weight Tamoxifen (Sigma-T5648) in corn oil (Spectrum-CO136). Exposure to S. aureus was initiated 15 days after the last dose of Tamoxifen. Alternatively, mice were inoculated with purified Adenovirus5-CC10-Cre virus obtained from the University of Iowa Viral Vector Core Facility and generated by Dr. Anton Berns (Netherlands Cancer Institute). 10 μL of stock virus solution was mixed in 30 μL of Minimum Essential Medium and delivered intranasally twice, three days apart, three weeks prior to induction of S. aureus pneumonia. Mice were anesthetized using 0.3 mg xylazine and […] ketamine intraperitoneally prior to intranasal inoculation with a 50 μL dilution of 5×10^8 S. aureus. The mice were monitored daily for weight loss and signs of respiratory distress and euthanized in an isofluorane chamber at days 0, 1, 2, and 3 after inoculation. All experiments were performed under the Duke University IACUC approved protocols: A098-16-04 and A130-16-06. Male and female mice at different ages (8 to 20 weeks old) were evaluated for differential response to drug (Abl kinase inhibitors and tamoxifen) and/or injury, and no significant effects of age and gender were observed.
# Inhibitors. GNF5 (N-(2-Hydroxyethyl)-3-(6-(4-(trifluoromethoxy)phenylamino)pyrimidin-4-yl)benzamide) was synthesized at the Duke University's Small Molecule Synthesis Facility, and validated by LC-MS and 1H-NMR/FT-IR spectra and with cell-based assays that confirm potencies and cell signaling inhibitory activities. For in vivo experiments, GNF5 was prepared in a suspension with 0.5% methylcellulose and 0.5% Tween-80 at a concentration of 10 mg/mL, and mice were treated with either 20 mg/kg, 40 mg/kg, or 100 mg/kg b.i.d. via oral gavage.
# Bronchoalveolar lavage preparation and assays. Bronchoalveolar lavage (BAL) fluid was collected immediately after euthanasia three days after exposure to S. aureus as previously described (Suliman H B, et al. (2017) Lung cellular and molecular physiology 313(4):L699-L709). Bilateral BAL was performed using two 1 mL aliquots of sterile PBS with approximately 75-80% retrieval per mouse. […]
SMILES,"SOX2 (basal cell marker) expression, immunoblot [1]","acetylated α-tubulin (ciliated cell marker) expression, immunoblot [1]",bronchosphere growth: basal cell proliferation and differentiation ([1]; treated three days starting two days after plating),acetylated α-tubulin expression (3D reconstruction) [2],acetylated α-tubulin protein expression (Western blot) [2],transepithelial electrical resistance across monolayer [3],"expression of downstream transcriptional targets of YAP (Birc5, c-Myc, Cyclin D3) [4]",Ki67 (proliferation marker) protein expression ([1]; vs untreated cells),"lung injury ([5]; FIG. 9F, treatment 24 h after injury)","BAL protein concentration ([5]; day 3 post-infection, treatment started 24 hours after injury (Post))"
O=C1NC(=O)C(c2cn(-c3ccccc3)nc2-c2ccc(F)cc2)N1 (stereo not drawn) [DPH],"increased expression of the basal cell marker, SOX2",decreased expression of acetylated α-tubulin,reduced bronchosphere growth and differentiation,,,,,,,
Cc1cn(-c2cc(NC(=O)c3ccc(C)c(Nc4nccc(-c5cccnc5)n4)c3)cc(C(F)(F)F)c2)cn1 [nilotinib],"decrease in the basal cell marker, SOX2","increase in the ciliated cell marker, acetylated α-tubulin",,increase in expression of acetylated α-tubulin,increase in protein expression of acetylated α-tubulin,increased resistance,decreased transcript and protein expression,"increase in protein expression of the proliferation marker, Ki67",significant reduction in lung injury,reduction in protein in the airspace

# From patent US12419891B2, “Compositions for the treatment of pathogenic- and/or chemical-induced lung injury and for the treatment of cancer and methods of using same” (Duke University, priority 2019, dated 2025)
